Measured values: patent US6090829A, “Method for treating excessive aggression” (Eli Lilly and Company, priority 1998, dated 2000)

Legend:
m4 receptors = test: cAMP formation in CHO m4 cells treated with pertussis toxin; assay type: cell-based
Description: Muscarinic agonists stimulate the formation of cAMP up to 10 fold in CHO m4 cells treated with pertussisi toxin and the pharmacology is consistent with the mediation by m4 receptors. Eckols K. Soc. Neurosci Abstr., 21:2040 (1995).

[1] = target: 3H-oxotremorine-M binding (muscarinic receptors); test: 3H-oxotremorine-M binding inhibition; conditions: radioligand 3H-oxotremorine-M; read-out: inhibition constant (Ki) for binding of 3H-oxotremorine-M
D2 receptor subtype = test: pharmacological studies at the D2 receptor subtype

CCCCCCOc1nsnc1C1=CCCN(C)C1 [xanomeline, 3-(4-hexyloxy-1,2,5-thiadiazol-3-yl)-1,2,5,6-tetrahydro-1-methylpyridine]
stimulation of the formation of cAMP (m4 receptors): efficaciously and potently stimulated the formation of cAMP | Ki [1]: 2 nM | activity at the D2 receptor subtype (D2 receptor subtype): active
